Assay results published in publication PMC5291411, “Cytotoxic conjugates of betulinic acid and substituted triazoles prepared by Huisgen Cycloaddition from 30-azidoderivatives” (PLoS ONE, 2017).

Legend:
[1] = tested on: CCRF-CEM; experiment: Cytotoxic MTS assay, CCRF-CEM; assay type: cell-based; conditions: Homo sapiens, 72 h, T-lymphoblastic leukemia
Description: (§1) Cytotoxic activity of all synthesized compounds was investigated in vitro against eight human cancer cell lines and two non-tumor fibroblasts using the standard MTS test (Table 1). The cancer cell lines were derived from T-lymphoblastic leukemia CCRF-CEM, leukemia K562 and their multiresistant counterparts expressing P-glycoprotein, MRP1 and LRP proteins (CEM-DNR, K562-TAX), solid tumors including lung (A549) and colon (HCT116, HCT116p53-/-) carcinomas, osteosarcoma cell line (U2OS), and for comparison, tests were performed on two human non-cancer fibroblast cell lines (BJ, MRC-5).
(§2) Biological assays were performed in concordance with our previous publications [[29], [58]; [60]; [61]]. All cells (if not indicated otherwise) were purchased from the American Tissue Culture Collection (ATCC). The CCRF-CEM line is derived from T lymphoblastic leukemia, evincing high chemosenzitivity, K562 represent cells from an acute myeloid leukemia patient sample with bcr-abl translocation, U2OS line is derived from osteosarcoma, HCT116 is colorectal tumor cell line and its p53 gene knock-down counterpart (HCT116p53-/-, Horizon Discovery Ltd, UK) is a model of human cancers with p53 mutation frequently associated with poor prognosis, A549 line is lung adenocarcinoma. The daunorubicin resistant subline of CCRF-CEM cells (CEM-DNR bulk) and paclitaxel resistant subline K562-TAX were selected in our laboratory by the cultivation of maternal cell lines in increasing concentrations of daunorubicine or paclitaxel, respectively. The CEM-DNR bulk cells overexpress MRP-1 and P-glycoprotein protein, while K562-TAX cells overexpress P-glycoprotein only. Both proteins belong to the family of ABC transporters and are involved in the primary and/or acquired multidrug resistance phenomenon. MRC-5 and BJ cell lines were used as a non-tumor control and represent human fibroblasts. The cells were maintained in nunc/corning 80 cm^2 plastic tissue culture flasks and cultured in cell culture medium according to ATCC or Horizon recommendations (DMEM/RPMI 1640 with 5 g/L glucose, 2 mM glutamine, 100 U/mL penicillin, […] streptomycin, 10% fetal calf serum, and NaHCO3).
(§3) MTS assay was performed at Institute of Molecular and Translational Medicine by robotic platform (HighResBiosolutions). Cell suspensions were prepared and diluted according to the particular cell type and the expected target cell density (25000–35000 cells/mL based on cell growth characteristics). Cells were added by automatic pipetor (30 μL) into 384 well microtiter plates. All tested compounds were dissolved in 100% DMSO and four-fold dilutions of the intended test concentration were added in 0.15 μL aliquots at time zero to the microtiter plate wells by the echoacustic non-contact liquid handler Echo550 (Labcyte). The experiments were performed in technical duplicates and three biological replicates at least. The cells were incubated with the tested compounds for 72 h at 37°C, in a 5% CO2 atmosphere at 100% humidity. At the end of the incubation period, the cells were assayed by using the MTS test. Aliquots (5 μL) of the MTS stock solution were pipetted into each well and incubated for additional 1–4 h. After this incubation period, the optical density (OD) was measured at 490 nm with an Envision reader (Perkin Elmer). Tumor cell survival (TCS) was calculated by using the following equation: TCS = (ODdrug-exposed well/mean ODcontrol wells) × 100%. The IC50 value, the drug concentration that is lethal to 50% of the tumor cells, was calculated from the appropriate dose-response curves in Dotmatics software.

[2] = tested on: CEM-DNR; experiment: Cytotoxic MTS assay, CEM-DNR; assay type: cell-based; conditions: Homo sapiens, 72 h, daunorubicin resistant subline of CCRF-CEM
Description: as §1, §2, §3

[3] = tested on: K562; experiment: Cytotoxic MTS assay, K562; assay type: cell-based; conditions: Homo sapiens, 72 h, leukemia
Description: as §1, §2, §3

[4] = tested on: K562-TAX; experiment: Cytotoxic MTS assay, K562-TAX; assay type: cell-based; conditions: Homo sapiens, 72 h, paclitaxel resistant subline of K562
Description: as §1, §2, §3

[5] = tested on: A549; experiment: Cytotoxic MTS assay, A549; assay type: cell-based; conditions: Homo sapiens, 72 h, lung adenocarcinoma
Description: as §1, §2, §3

[6] = tested on: HCT116; experiment: Cytotoxic MTS assay, HCT116; assay type: cell-based; conditions: Homo sapiens, HCT-116, 72 h, colorectal tumor
Description: as §1, §2, §3

[7] = tested on: HCT116p53-/-; experiment: Cytotoxic MTS assay, HCT116p53-/-; assay type: cell-based; conditions: Homo sapiens, 72 h, p53 knock-down colorectal tumor
Description: as §1, §2, §3

[8] = tested on: U2OS; experiment: Cytotoxic MTS assay, U2OS; assay type: cell-based; conditions: Homo sapiens, 72 h, osteosarcoma
Description: as §1, §2, §3

[9] = tested on: BJ; experiment: Cytotoxic MTS assay, BJ fibroblasts; assay type: cell-based; conditions: Homo sapiens, 72 h, non-tumor fibroblasts
Description: as §1, §2, §3

[10] = tested on: MRC-5; experiment: Cytotoxic MTS assay, MRC-5 fibroblasts; assay type: cell-based; conditions: Homo sapiens, MRC5, 72 h, non-tumor fibroblasts
Description: as §1, §2, §3

[11] = tested on: CCRF-CEM cells; experiment: Cell cycle and apoptosis analysis (propidium iodide flow cytometry); assay type: cell-based, human
Description: (§4) Together with the treated cells, control sample containing vehicle was harvested at the same time point after 24 h. After another 24 hours, cells were then washed with cold PBS and fixed in 70% ethanol added dropwise and stored overnight at -20°C. Afterwards, cells were washed in hypotonic citrate buffer, treated with RNAse (50 μg/mL) and stained with propidium iodide. Flow cytometer using a 488 nm single beam laser (Becton Dickinson) was used for measurement. Cell cycle was analyzed in the program ModFitLT (Verity), and apoptosis was measured in logarithmic model expressing percentage of the particles with propidium content lower than cells in G0/G1 phase (<G1) of the cell cycle. Half of the sample was used for pH3^Ser10 antibody (Sigma) labeling and subsequent flow cytometry analysis of mitotic cells.

[12] = tested on: CCRF-CEM cells; experiment: pH3Ser10 antibody labeling, flow cytometry of mitotic cells; assay type: cell-based, human
Description: as §4

[13] = tested on: CCRF-CEM cells; experiment: BrDU incorporation analysis (DNA synthesis); assay type: cell-based, human; design: DNA synthesis: unit not given here
Description: as §4
For this analysis, the same procedure of cultivation as previously was used. Before harvesting, 10 μM 5-bromo-2-deoxyuridine (BrDU), was added to the cells for puls-labeling for 30 min. Cells were fixed with ice-cold 70% ethanol and stored overnight. Before the analysis, cellswere washed with PBS, and resuspended in 2 M HCl for 30 min at room temperature to denature their DNA. Following neutralization with 0.1 M Na2B4O7 (Borax), cells were washed with PBS containing 0.5% Tween-20 and 1% BSA. Staining with primary anti-BrDU antibody (Exbio) for 30 min at room temperature in the dark followed. Cells were than washed with PBS and stained with secondary antimouse-FITC antibody (Sigma). Cells were then washed with PBS again and incubated with propidium iodide (0.1 mg/mL) and RNAse A (0.5 mg/mL) for 1 h at room temperature in the dark and afterwards analyzed by flow cytometry using a 488 nm single beam laser (FACSCalibur, Becton Dickinson).

[14] = tested on: CCRF-CEM cells; experiment: BrU incorporation analysis (RNA synthesis); assay type: cell-based, human; design: RNA synthesis: unit not given here
Description: as §4
Cells were cultured and treated as above. Before harvesting, pulse-labeling with 1 mM 5-bromouridine (BrU) for 30 min followed. The cells were then fixed in 1% buffered paraformaldehyde with 0.05% of NP-40 in room temperature for 15 min, and then stored in 4°C overnight. Before measurement, they werewashed in PBS with 1% glycin, washed in PBS again, and stained by primary anti-BrDU antibody crossreacting to BrU (Exbio) for 30 min at room temperature in the dark. After another washing step in PBS cells were stained by secondary antimouse-FITC antibody (Sigma). Following the staining, cells were washed with PBS and fixed with 1% PBS buffered paraformaldehyde with 0.05% of NP-40 for 1 hour. Cells were washed by PBS, incubated with propidium iodide (0.1 mg/mL) and RNAse A (0.5 mg/mL) for 1 h at room temperature in the dark, and finally analyzed by flow cytometry using a 488 nm single beam laser (FACS Calibur, Becton Dickinson).

| Structure (SMILES) | IC50 [1] [µM] | IC50 [2] [µM] | IC50 [3] [µM] | IC50 [4] [µM] | IC50 [5] [µM] | IC50 [6] [µM] | IC50 [7] [µM] | IC50 [8] [µM] | IC50 [9] [µM] | IC50 [10] [µM] | G0/G1 (%) ([11]; 1 × IC50) | G2/M (%) ([11]; 1 × IC50) | S (%) ([11]; 1 × IC50) | Sub G1 (%) ([11]; 1 × IC50) | G0/G1 (%) ([11]; 5 × IC50) | G2/M (%) ([11]; 5 × IC50) | S (%) ([11]; 5 × IC50) | Sub G1 (%) ([11]; 5 × IC50) | pH3Ser10 (%) ([12]; 1 × IC50) | pH3Ser10 (%) ([12]; 5 × IC50) | also measured |
| --- | --- | --- | --- | --- | --- | --- | --- | --- | --- | --- | --- | --- | --- | --- | --- | --- | --- | --- | --- | --- | --- |
| C=C(CBr)[C@@H]1CC[C@]2(C(=O)O)CC[C@]3(C)C(CCC4[C@@]5(C)CC[C@H](OC(C)=O)C(C)(C)C5CC[C@]43C)C12 (stereo partly drawn) [Compound 4, 3β-O-Acetyl-30-bromobetulinic acid] | 5.7 | 15.3 | 21.7 | 15.8 | 13.2 | 15.9 | 14.1 | 21.2 | 31.7 | 24.2 | 47.3 | 16.8 | 35.9 | 9.4 | 33.7 | 23.2 | 43.0 | 39.7 | 1.34 | 2.35 | effect on DNA synthesis (in words) [13]: inhibiting; DNA synthesis ([13]; 1 × IC50, BrDU incorporation): 38.6; DNA synthesis ([13]; 5 × IC50, BrDU incorporation): 5.80; effect on RNA synthesis (in words) [14]: inhibiting; RNA synthesis ([14]; 1 × IC50, BrU incorporation): 56.3; RNA synthesis ([14]; 5 × IC50, BrU incorporation): 24.8 |
| C=C(CN=[N+]=[N-])[C@@H]1CC[C@]2(C(=O)O)CC[C@]3(C)C(CCC4[C@@]5(C)CC[C@H](OC(C)=O)C(C)(C)C5CC[C@]43C)C12 (stereo partly drawn) [Compound 6, 3β-O-Acetyl-30-azidobetulinic acid] | 7.4 | 19.2 | 12.3 | 15.5 | 17.6 | 18.6 | 19.7 | 20.9 | 26.7 | 20 | 49.3 | 20.3 | 30.4 | 10.7 | 41.4 | 23.8 | 34.8 | 70.0 | 1.80 | 2.68 | effect on DNA synthesis (in words) [13]: inhibiting; DNA synthesis ([13]; 1 × IC50, BrDU incorporation): 33.0; DNA synthesis ([13]; 5 × IC50, BrDU incorporation): 1.00; effect on RNA synthesis (in words) [14]: inhibiting; RNA synthesis ([14]; 1 × IC50, BrU incorporation): 14.1; RNA synthesis ([14]; 5 × IC50, BrU incorporation): 1.70 |
| C=C(CBr)[C@@H]1CC[C@]2(C(=O)O)CC[C@]3(C)C(CCC4[C@@]5(C)CC[C@H](O[Si](c6ccccc6)(c6ccccc6)c6ccccc6)C(C)(C)C5CC[C@]43C)C12 (stereo partly drawn) [Compound 5, 3β-O-Triphenylsilyl-30-bromobetulinic acid] | > 50 | 13.2 | > 50 | 12.2 | > 50 | 35.6 | 31.1 | 27.9 | > 50 | > 50 |  |  |  |  |  |  |  |  |  |  | melting point: 208 to 210 °C |
